In article PMC11187126, “Structure and dynamics of the pyroglutamylated RF-amide peptide QRFP receptor GPR103” (Nature Communications, 2024):
Like-named read-outs stand apart in the source and are kept apart here. No end group written: not given here.

Target: T1, GPR103 F11N-termA (Homo sapiens, UniProt Q96P65, F11A)
T1 construct: we used human full-length QRFPR-encoding plasmids; expressed in transfected cells; host or cells: HEK293 cells, pCAGGS vector
T1 sequence (Q96P65 1-431 F11A): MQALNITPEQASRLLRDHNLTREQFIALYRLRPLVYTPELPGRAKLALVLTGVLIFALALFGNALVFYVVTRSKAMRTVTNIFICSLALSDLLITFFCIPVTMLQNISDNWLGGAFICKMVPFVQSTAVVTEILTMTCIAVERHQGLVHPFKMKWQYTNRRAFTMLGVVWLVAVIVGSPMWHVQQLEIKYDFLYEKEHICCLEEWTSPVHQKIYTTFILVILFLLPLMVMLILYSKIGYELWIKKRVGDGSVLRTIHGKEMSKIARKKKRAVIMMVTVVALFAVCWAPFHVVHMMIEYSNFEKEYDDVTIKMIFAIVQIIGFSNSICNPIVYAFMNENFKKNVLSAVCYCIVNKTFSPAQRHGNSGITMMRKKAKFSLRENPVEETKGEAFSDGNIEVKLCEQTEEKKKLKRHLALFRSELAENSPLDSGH
Experiment: TGFα shedding assay; Exp. level WT (1:10)
Assay type: cell-based
Procedure: For the TGFα shedding assay and the flow cytometry analysis, we used human full-length QRFPR-encoding plasmids. Specifically, GPR103 was N-terminally modified with an HA signal sequence followed by a FLAG epitope and then a flexible linker ([…]; the FLAG epitope is underlined) and inserted into the pCAGGS vector. Plasmid encoding GPR103 mutants were generated using Quickchange Site-Directed Mutagensis kit (Agilent).
The TGFα shedding assay was performed as described previously with minor modifications. Plasmid transfection was performed in a 6-well plate with a mixture of 500 ng (per well in a 6-well plate) AP-TGFα-encoding plasmid and 200 ng GPR103-encoding plasmid. After 1-day culture, the transfected cells were harvested by trypsinization, pelleted by centrifugation at 190 × g for 5 min, and washed once with 5 mM HEPES (pH 7.4)-containing Hank’s Balanced Salt Solution (HBSS). After centrifugation, the cells were resuspended in 8 mL of the HEPES-containing HBSS. The cell suspension was seeded in a 96-well culture plate (cell plate) at a volume of 90 μL (per well hereafter) and incubated in a 37 °C incubator with 5% CO2 for 30 min. […] After spinning the cell plates at 190 × g for 2 min, 80 μL of conditioned media was transferred to an empty 96-well plate (conditioned media (CM) plate). Then, 80 μL of AP reaction solution (10 mM p-nitrophenylphosphate (p-NPP), 120 mM Tris-HCl (pH 9.5), 40 mM NaCl, and 10 mM MgCl2) was dispensed into the cell plates and the CM plates. Absorbance at 405 nm of the plates was measured using a microplate reader (SpectraMax 340 PC384, Molecular Devices) before and after 1-h incubation at room temperature. Ligand-induced AP-TGFα release was calculated by subtracting spontaneous AP-TGFα release signal from ligand-induced AP-TGFα release signal. The AP-TGFα release signals were fitted to a four-parameter sigmoidal concentration–response curve, using the Prism 10 software (GraphPad Prism). For each replicate experiment, the pEC50 parameter (negative logarithmic values of EC50 values) of the individual GPR103 mutants were normalized to that of the wild-type GPR103 performed in parallel, and resulting ∆pEC50 values were used to denote ligand response activity of the mutants. […]
Exp. le vel: WT (1:5 0)Exp. le vel: WT (1:5 0)Exp. le vel: WT (1:5 0)Exp. le vel: WT (1:2 0)Exp. le vel: WT (1:2 0)Exp. le vel: WT (1:1 0) […]
L1 4N - t e r mA F2 5N - t e r mA I 2 6N - t e r mA Y 2 9N - t e r mA C 9 82 .5 7A T10 22 .6 1A Exp . l eve l: WT (1 :5)Exp . l evel : >WT (1 :1)Exp. le vel: WT (1:2 0)Exp. le vel: WT (1:2 0)Exp. le vel: WT (1:5 0)Exp . l eve l: WT (1 :1) […]
Exp. le vel: WT (1:1 0)Exp. le vel: WT (1:2 0) C 1 1 83 .2 5AExp. le vel: WT (1:5 0)Exp. le vel: WT (1:5 0)Exp. le vel: WT (1:2 0)Exp . l eve l: WT (1 :5) […]
Exp. le vel: WT (1:5 0)Exp. le vel: WT (1:1 0)Exp. le vel: WT (1:5 0) E203ECL2AExp . l evel : >WT (1 :1)Exp. le vel: WT (1:5 0)Exp. le vel: WT (1:5 0) […]
Exp . l eve l: WT (1 :1) F28Exp. le vel: WT (1:5 0) C 2 8 56 .4 7AExp. le vel: WT (1:2 0) WExp. le vel: WT (1:2 0) F28Exp. le vel: WT (1:5 0)Exp . l evel : >WT (1 :1) […]
Exp. le vel: WT (1:5 0)Exp. le vel: WT (1:5 0) C 3 2 77 .4 8AExp . l eve l: WT (1 :5)Exp . l evel : >WT (1 :1)Exp . l evel : >WT (1 :1) […]
Suppl eme nt ary Figure 1 | Mutational analysis of GPR103. […]
mutants. Data are presented as mean values ± SEM, normally n=3-5; dots), each performed in triplicate. b-d Cell-surface expression (b) and QRFP26-in-duced activation of GPR103 (c, d) were analyzed by the flow cytometry and the TGFα shedding assay, respectively. From the concentration–response curves (a), Emax (c) and ΔpEC50 (d) values relative to the wild type were calculated. Colors in the mutant bars indicate an expression level matching to that of titrated wild type. Statistical analyses were performed using the ordinary one-way ANOVA followed by Dunnett tests with the expression-matched […]

Emax (Exp. #1): 103.83 % WT
Emax (Exp. #2): 92.88 % WT
Emax (Exp. #3): 104.15 % WT
Emax (mean, read-out: Emax): 100%
EC50 (n = 3): 0.178 µM
Emax (n = 3, read-out: Emax): 104 ± 3%
Substance: TSGPLGNLAEELNGYSRKKGGFSFRF-NH2 [QRFP26]
